# Data published in patent publication US5001118A, “Method for preventing senescence and increasing bone mass” (priority 1986, dated 1991).
# Key:
# [1] = Acute toxicity, oral administration; format: in vivo; details: mouse, in vivo, po
# Description: (§1) A test solution was prepared by dissolving the present substance, 24R,25-(OH)2 -D3, in ethanol and again dissolving the resultant ethanol solution in triglyceride ester of a fatty acid of 8 to 10 carbon atoms so that the ethanol concentration is 2%. Then, the test solution was orally administered (p.o.) at a dose of 100 mg/kg to a test group of 10 ICR type male mice (each weighing 25±3 g). For two weeks, the mice were kept under observation for sign of toxication. […] They were then sacrificed and subjected to biochemical blood inspection, anatomical observation, and histopathological inspection.
# ICR type male mice = assay: Acute toxicity, oral administration; format: in vivo; details: 100 mg/kg p.o.
# Description: as §1
# ICR type mice [2] = assay: Inspection of urine, daily oral administration; format: in vivo, mouse (ICR type); parameters: key: .dwnarw.: Decrease below control; →: No difference from control; .uparw.: Increase above control
# Description: (§2) Solutions obtained by dissolving the present substance, 24R,25-(OH)2 -D3 in a prescribed concentration in triglyceride of a fatty acid of 8 to 10 carbon atoms containing 1% of ethanol were administered respectively, orally, forcedly and daily to three male-groups and three female-groups of ICR type mice 5 weeks old at dosages of 10, 100, and 1,000 μg/kg.day. The results are compared below with respect to the following items with those obtained of the male- and female-groups using only the solvent without the present substance.
# [3] = Growth curves (body weight), daily oral administration; format: in vivo, mouse (ICR type); details: male and female ICR mice, 10, 100, and 1,000 μg/kg.day orally
# Description: as §2
# ICR type mice [4] = assay: Histopathological inspection of internal organs (haematoxylin eosine); format: in vivo, mouse (ICR type); details: male and female ICR mice, 10, 100, and 1,000 μg/kg.day orally
# Description: as §2
# The following internal organs were fixed with 10% formalin, tinted with haematoxylin eosine dye, and subjected to histopathological inspection.
# Brain, heart, lung, liver, kidney, adrenal gland, spleen, pancreas, thyroid gland, pituitary gland, thymus, mesentery lymphoglandia, testis, ovary, uterus, stomach, small intestines (jejunum, ileum, and duodenum), large intestines (colon and caecum), orb, submaxillary gland, urinary bladder, dorsal skin, muscle, sternum, sternal medulla, femur, and femoral medulla.
# [5] = test system: femurs and tibias of male Wister rats; assay: Soft X-ray photographs: volumes of cortical bone and sponge bone; format: in vivo, rat (Wister); details: 400 μg/kg.day orally, 24 months, vs control
# Description: Male Wister rats 4 weeks old were preliminarily kept for two weeks. For the subsequent 24 months, the present substance, 24R,25-(OH)2 -D3, was orally administered daily at a dosage of 400 μg/kg.day to the pre-bred rats. Then, the aged rats were sacrificed and their femurs and tibias were collected in the form with adhering flesh, and soft X-ray photographs thereof were taken with a camera (produced by Soflon Corp. and marketed under product code of "Model NST-1005"). By the obtained photographs the volumes of the cortical bone and the sponge bone were measured. Further, as to a part of the femurs the central portion in the direction of the major axis of the femurs was inspected with a microdensitometer thereby analyzing the picture of pattern of shade concentration to calculate the index by the conventional M.D. method. As regards the manner of administration, a modified feed was prepared by uniformly dispersing a prescribed amount of the present substance, 24R,25-(OH)2 -D3, in glycine and admixing the resultant dispersing mixture with a marketed feed (produced by Nippon Clea Co., Ltd. under product code of "CE-2") in such a ratio as to give a final glycine concentration of 0.5% by weight, and the modified feed was consumed by the rats. To the rats of the control group, the same marketed feed containing 0.5% by weight of glycine was given.
structure (smiles),measurement,setting,value
"C=C1CC[C@H](O)C/C1=C/C=C1\CCC[C@]2(C)[C@@H]([C@H](C)CC[C@@H](O)C(C)(C)O)CC[C@@H]12 [24R,25-(OH)2 -D3]",LD50 at 336 h,[1],≥ 100 mg/kg
same,sign of abnormality,"ICR type male mice; 10 ICR male mice, two weeks",no sign of abnormality
same,survival,"ICR type male mice; 10 ICR male mice, two weeks",All of the mice survived
same,"biochemical blood inspection, anatomical observation, and histopathological inspection vs control","ICR type male mice; ICR male mice, after two weeks",not different at all
same,Urine ketone body,"ICR type mice [2]; female, 10 μg/kg",→
same,Urine occult blood,"ICR type mice [2]; female, 10 μg/kg",→
same,Urine pH,"ICR type mice [2]; female, 10 μg/kg",→
same,Urine protein,"ICR type mice [2]; female, 10 μg/kg",→
same,Urine sugar,"ICR type mice [2]; female, 10 μg/kg",→
same,Urobilinogen,"ICR type mice [2]; female, 10 μg/kg",→
same,Urine ketone body,"ICR type mice [2]; female, 100 μg/kg",→
same,Urine occult blood,"ICR type mice [2]; female, 100 μg/kg",→
same,Urine pH,"ICR type mice [2]; female, 100 μg/kg",→
same,Urine protein,"ICR type mice [2]; female, 100 μg/kg",→
same,Urine sugar,"ICR type mice [2]; female, 100 μg/kg",→
same,Urobilinogen,"ICR type mice [2]; female, 100 μg/kg",→
same,Urine ketone body,"ICR type mice [2]; female, 1000 μg/kg",→
same,Urine occult blood,"ICR type mice [2]; female, 1000 μg/kg",→
same,Urine pH,"ICR type mice [2]; female, 1000 μg/kg",→
same,Urine protein,"ICR type mice [2]; female, 1000 μg/kg",→
same,Urine sugar,"ICR type mice [2]; female, 1000 μg/kg",→
same,Urobilinogen,"ICR type mice [2]; female, 1000 μg/kg",→
same,Urine ketone body,"ICR type mice [2]; male, 10 μg/kg",→
same,Urine occult blood,"ICR type mice [2]; male, 10 μg/kg",→
same,Urine pH,"ICR type mice [2]; male, 10 μg/kg",→
same,Urine protein,"ICR type mice [2]; male, 10 μg/kg",→
same,Urine sugar,"ICR type mice [2]; male, 10 μg/kg",→
same,Urobilinogen,"ICR type mice [2]; male, 10 μg/kg",→
same,Urine ketone body,"ICR type mice [2]; male, 100 μg/kg",→
same,Urine occult blood,"ICR type mice [2]; male, 100 μg/kg",→
same,Urine pH,"ICR type mice [2]; male, 100 μg/kg",→
same,Urine protein,"ICR type mice [2]; male, 100 μg/kg",→
same,Urine sugar,"ICR type mice [2]; male, 100 μg/kg",→
same,Urobilinogen,"ICR type mice [2]; male, 100 μg/kg",→
same,Urine ketone body,"ICR type mice [2]; male, 1000 μg/kg",→
same,Urine occult blood,"ICR type mice [2]; male, 1000 μg/kg",→
same,Urine pH,"ICR type mice [2]; male, 1000 μg/kg",→
same,Urine protein,"ICR type mice [2]; male, 1000 μg/kg",→
same,Urine sugar,"ICR type mice [2]; male, 1000 μg/kg",→
same,Urobilinogen,"ICR type mice [2]; male, 1000 μg/kg",→
same,change of body weight (growth curves),[3],absence of a discernible difference
same,histopathological inspection of internal organs,ICR type mice [4],no discernible abnormality
same,cortical bone width,[5],increase
same,"lateral diameter, D",[5],increase
same,trabecula of the sponge bone at epiphysis,[5],increase
